Laboratory results reported in ChEMBL document CHEMBL1139786, “Anti-tubercular agents. Part IV: Synthesis and antimycobacterial evaluation of nitroheterocyclic-based 1,2,4-benzothiadiazines” (2007).
≈ marks a conversion by molar mass, not a printed value.

How the values were obtained:
Assay type in all cases: functional
Staphylococcus aureus = test: Antibacterial activity against Staphylococcus aureus MTCC 96 by broth dilution method
Escherichia coli = test: Antibacterial activity against Escherichia coli MTCC 443 by broth dilution method
Bacillus subtilis = test: Antibacterial activity against Bacillus subtilis MTCC 441 by broth dilution method
Pseudomonas aeruginosa = test: Antibacterial activity against Pseudomonas aeruginosa MTCC 1688 by broth dilution method
[1] = test system: Mycobacterium tuberculosis; test: Antibacterial activity against Mycobacterium tuberculosis H37Rv by nitrate reductase assay

| Structure (SMILES) | MIC (Staphylococcus aureus) | MIC (Escherichia coli) | MIC (Bacillus subtilis) | MIC (Pseudomonas aeruginosa) | MIC [1] |
| --- | --- | --- | --- | --- | --- |
| CCN1C(NNC(=O)c2ccc(-c3ccccc3[N+](=O)[O-])o2)=NS(=O)(=O)c2ccccc21 | 9.37 µg/mL (≈ 20.6 µM) | 18.8 µg/mL (≈ 41.2 µM) | 18.8 µg/mL (≈ 41.2 µM) | 150 µg/mL (≈ 329 µM) | > 100 µg/mL |
| CCN1C(N/N=C\c2ccc([N+](=O)[O-])s2)=NS(=O)(=O)c2ccccc21 | 18.8 µg/mL (≈ 49.4 µM) | 18.8 µg/mL (≈ 49.4 µM) | 18.8 µg/mL (≈ 49.4 µM) | 150 µg/mL (≈ 395 µM) | 16 µg/mL (≈ 42.2 µM) |
| CCN1C(NNC(=O)c2ccc([N+](=O)[O-])o2)=NS(=O)(=O)c2ccccc21 | 150 µg/mL (≈ 395 µM) | 18.8 µg/mL (≈ 49.4 µM) | 18.8 µg/mL (≈ 49.4 µM) | 150 µg/mL (≈ 395 µM) | 32 µg/mL (≈ 84.4 µM) |
| CN1C(N/N=C\c2ccc([N+](=O)[O-])s2)=NS(=O)(=O)c2ccccc21 | 37.5 µg/mL (≈ 103 µM) | 37.5 µg/mL (≈ 103 µM) | 18.8 µg/mL (≈ 51.3 µM) | 150 µg/mL (≈ 411 µM) | 8 µg/mL (≈ 21.9 µM) |
| CN1C(NNC(=O)c2ccc(-c3ccccc3[N+](=O)[O-])o2)=NS(=O)(=O)c2ccccc21 | 18.8 µg/mL (≈ 42.5 µM) | 37.5 µg/mL (≈ 85 µM) | 37.5 µg/mL (≈ 85 µM) | 75 µg/mL (≈ 170 µM) | > 100 µg/mL |
| CO[C@H]1/C=C/O[C@@]2(C)Oc3c(C)c(O)c4c(O)c(c(/C=N/N5CCN(C)CC5)c(O)c4c3C2=O)NC(=O)/C(C)=C\C=C\[C@H](C)[C@H](O)[C@@H](C)[C@@H](O)[C@@H](C)[C@H](OC(C)=O)[C@@H]1C [RIFAMPIN] | – | – | – | – | 0.12 µg/mL (≈ 0.146 µM) |
| O=C(NNC1=NS(=O)(=O)c2ccccc2N1c1ccccc1)c1ccc(-c2cccc([N+](=O)[O-])c2)o1 | 18.8 µg/mL (≈ 37.2 µM) | 18.8 µg/mL (≈ 37.2 µM) | 37.5 µg/mL (≈ 74.5 µM) | 150 µg/mL (≈ 298 µM) | > 100 µg/mL |
| CN1C(N/N=C\c2ccc([N+](=O)[O-])o2)=NS(=O)(=O)c2ccccc21 | 37.5 µg/mL (≈ 107 µM) | 18.8 µg/mL (≈ 53.7 µM) | 37.5 µg/mL (≈ 107 µM) | 150 µg/mL (≈ 429 µM) | 8 µg/mL (≈ 22.9 µM) |
| NNC(=O)c1ccncc1 [ISONIAZID] | – | – | – | – | 0.5 µg/mL (≈ 3.65 µM) |
| CN1C(NNC(=O)c2ccc([N+](=O)[O-])o2)=NS(=O)(=O)c2cc(Cl)ccc21 | 37.5 µg/mL (≈ 93.8 µM) | 18.8 µg/mL (≈ 46.9 µM) | 18.8 µg/mL (≈ 46.9 µM) | 150 µg/mL (≈ 375 µM) | 4 µg/mL (≈ 10 µM) |
| CN1C(NNC(=O)c2ccc(-c3cccc([N+](=O)[O-])c3)o2)=NS(=O)(=O)c2ccccc21 | 18.8 µg/mL (≈ 42.5 µM) | 18.8 µg/mL (≈ 42.5 µM) | 37.5 µg/mL (≈ 85 µM) | 75 µg/mL (≈ 170 µM) | > 100 µg/mL |
| O=C1CN(/N=C/c2ccc([N+](=O)[O-])o2)C(=O)N1 [NITROFURANTOIN] | 18.8 µg/mL (≈ 78.7 µM) | 18.8 µg/mL (≈ 78.7 µM) | 18.8 µg/mL (≈ 78.7 µM) | 150 µg/mL (≈ 630 µM) | – |
| O=C(NNC1=NS(=O)(=O)c2ccccc2N1c1ccccc1)c1ccc([N+](=O)[O-])o1 | 37.5 µg/mL (≈ 87.7 µM) | 18.8 µg/mL (≈ 43.9 µM) | 75 µg/mL (≈ 175 µM) | 150 µg/mL (≈ 351 µM) | 8 µg/mL (≈ 18.7 µM) |
| CN1C(NNC(=O)c2ccc(-c3ccccc3[N+](=O)[O-])o2)=NS(=O)(=O)c2cc(Cl)ccc21 | 75 µg/mL (≈ 158 µM) | 18.8 µg/mL (≈ 39.4 µM) | 37.5 µg/mL (≈ 78.8 µM) | 150 µg/mL (≈ 315 µM) | > 100 µg/mL |
| O=[N+]([O-])c1ccc(/C=N\NC2=NS(=O)(=O)c3ccccc3N2c2ccccc2)o1 | 75 µg/mL (≈ 182 µM) | 37.5 µg/mL (≈ 91.2 µM) | 37.5 µg/mL (≈ 91.2 µM) | 150 µg/mL (≈ 365 µM) | 1 µg/mL (≈ 2.43 µM) |
| CN1C(NNC(=O)c2ccc([N+](=O)[O-])o2)=NS(=O)(=O)c2ccccc21 | 37.5 µg/mL (≈ 103 µM) | 18.8 µg/mL (≈ 51.3 µM) | 18.8 µg/mL (≈ 51.3 µM) | 150 µg/mL (≈ 411 µM) | 32 µg/mL (≈ 87.6 µM) |
| CCN1C(NNC(=O)c2ccc(-c3cccc([N+](=O)[O-])c3)o2)=NS(=O)(=O)c2ccccc21 | 75 µg/mL (≈ 165 µM) | 75 µg/mL (≈ 165 µM) | 37.5 µg/mL (≈ 82.3 µM) | 150 µg/mL (≈ 329 µM) | > 100 µg/mL |
| CC(C)N1C(N/N=C\c2ccc([N+](=O)[O-])s2)=NS(=O)(=O)c2ccccc21 | 18.8 µg/mL (≈ 47.7 µM) | 18.8 µg/mL (≈ 47.7 µM) | 18.8 µg/mL (≈ 47.7 µM) | 150 µg/mL (≈ 381 µM) | 4 µg/mL (≈ 10.2 µM) |
| O=C(NNC1=NS(=O)(=O)c2ccccc2N1c1ccccc1)c1ccc(-c2ccccc2[N+](=O)[O-])o1 | 18.8 µg/mL (≈ 37.2 µM) | 75 µg/mL (≈ 149 µM) | 37.5 µg/mL (≈ 74.5 µM) | 150 µg/mL (≈ 298 µM) | > 100 µg/mL |
| CCN1C(N/N=C\c2ccc([N+](=O)[O-])o2)=NS(=O)(=O)c2ccccc21 | 37.5 µg/mL (≈ 103 µM) | 18.8 µg/mL (≈ 51.6 µM) | 9.37 µg/mL (≈ 25.8 µM) | 150 µg/mL (≈ 413 µM) | 8 µg/mL (≈ 22 µM) |
| O=[N+]([O-])c1ccc(/C=N\NC2=NS(=O)(=O)c3ccccc3N2c2ccccc2)s1 | 37.5 µg/mL (≈ 87.7 µM) | 18.8 µg/mL (≈ 43.9 µM) | 37.5 µg/mL (≈ 87.7 µM) | 150 µg/mL (≈ 351 µM) | 4 µg/mL (≈ 9.36 µM) |
